Measured values as given in US12121524B2, “DNA-PK inhibitors” (VERTEX PHARMACEUTICALS INCORPORATED, priority 2018, dated 2024).

Biological target: DNA-PK (Homo sapiens, UniProt P78527)
Test: DNA-PK inhibition assay (standard radiometric 33P-ATP kinase assay)
Assay type: biochemical
Conditions: 100 μM ATP, approx. 6 nM DNA-PK
Protocol: Compounds were screened for their ability to inhibit DNA-PK kinase using a standard radiometric assay. Briefly, in this kinase assay the transfer of the terminal ^33P-phosphate in ^33P-ATP to a peptide substrate is interrogated. The assay was carried out in 384-well plates to a final volume of 50 μL per well containing approximately 6 nM DNA-PK, 50 mM HEPES (pH 7.5), 10 mM MgCl2, 25 mM NaCl, 0.01% BSA, 1 mM DTT, 10 μg/mL sheared double-stranded DNA (obtained from Sigma), 0.8 mg/mL DNA-PK peptide (Glu-Pro-Pro-Leu-Ser-Gln-Glu-Ala-Phe-Ala-Asp-Leu-Trp-Lys-Lys-Lys, obtained from American Peptide), and 100 μM ATP.
Accordingly, compounds of the invention were dissolved in DMSO to make 10 mM initial stock solutions. Serial dilutions in DMSO were then made to obtain the final solutions for the assay. A 0.75 μL aliquot of DMSO or inhibitor in DMSO was added to each well, followed by the addition of ATP substrate solution containing ^33P-ATP (obtained from Perkin Elmer). The reaction was started by the addition of DNA-PK, peptide and ds-DNA. After 45 min, the reaction was quenched with 25 μL of 5% phosphoric acid. The reaction mixture was transferred to MultiScreen HTS 384-well PH plates (obtained from Millipore), allowed to bind for one hour, and washed three times with 1% phosphoric acid. Following the addition of 50 μL of Ultima Gold™ high efficiency scintillant (obtained from Perkin Elmer), the samples were counted in a Packard TopCount NXT Microplate Scintillation and Luminescence Counter (Packard BioScience). The Ki values were calculated using Microsoft Excel Solver macros to fit the data to the kinetic model for competitive tight-binding inhibition.

| SMILES | Ki [µM] |
| --- | --- |
| Brc1ccc(N[C@H]2CC[C@@H](Oc3cc(N4CCOCC4)cc4nccnc34)CC2)nc1 [Compound 164] | < 0.1 |
| CN(C)c1nc(N[C@H]2CC[C@@H](Oc3cc(N4CCOCC4)cc4nccnc34)CC2)ncc1F [Compound 269] | < 0.1 |
| C[C@H](CO)Nc1ncnc(N[C@H]2CC[C@@H](Oc3cc(N4CCOCC4)cc4nccnc34)CC2)c1F [Compound 380] | < 0.1 |
| CCOc1cnc(N[C@H]2CC[C@@H](Oc3cc(N4CCOCC4)cc4nccnc34)CC2)nc1 [Compound 233] | < 0.1 |
| CNc1cc(N[C@H]2CC[C@@H](Oc3cc(N4CCOCC4)cc4nccnc34)CC2)ncn1 [Compound 205] | < 0.1 |
| COc1cc(C)nc(N[C@H]2CC[C@@H](Oc3cc(N4CCOCC4)cc4nccnc34)CC2)n1 [Compound 276] | < 0.1 |
| CC(C)c1cnc(N[C@H]2CC[C@@H](Oc3cc(N4CCOCC4)cc4nccnc34)CC2)nc1 [Compound 209] | < 0.1 |
| COCCNc1cc(N[C@H]2CC[C@@H](Oc3cc(N4CCOCC4)cc4nccnc34)CC2)ncn1 [Compound 263] | < 0.1 |
| CCCCc1cnc2cc(N3CCOCC3)cc(O[C@H]3CC[C@@H](Nc4ncc(Br)cn4)CC3)c2n1 [Compound 64] | < 0.1 |
| O[C@H](c1cnc(N[C@H]2CC[C@@H](Oc3cc(N4CCOCC4)cc4nccnc34)CC2)nc1)C(F)(F)F [Compound 235] | < 0.1 |
| N#Cc1ccc(N[C@H]2CC[C@@H](Oc3cc(N4CCOCC4)cc4nccnc34)CC2)nc1 [Compound 59] | < 0.1 |
| COc1nc(Cl)cc(N[C@H]2CC[C@@H](Oc3cc(N4CCOCC4)cc4nccnc34)CC2)n1 [Compound 219] | < 0.1 |
| COc1ccc(N[C@H]2CC[C@@H](Oc3cc(N4CCOCC4)cc4nccnc34)CC2)nn1 [Compound 260] | < 0.1 |
| Fc1cnc(N[C@H]2CC[C@@H](Oc3cc(N4CCOCC4)cc4nccnc34)CC2)nc1 [Compound 37] | < 0.1 |
| CN(C)C(=O)c1ccc(N[C@H]2CC[C@@H](Oc3cc(N4CCOCC4)cc4nccnc34)CC2)nc1 [Compound 145] | < 0.1 |
| Cc1ccnc(N[C@H]2CC[C@@H](Oc3cc(N4CCOCC4)cc4nccnc34)CC2)n1 [Compound 246] | < 0.1 |
| CC(C)Oc1cnc(N[C@H]2CC[C@@H](Oc3cc(N4CCOCC4)cc4nccnc34)CC2)nc1 [Compound 247] | < 0.1 |
| Fc1c(Cl)ncnc1N[C@H]1CC[C@@H](Oc2cc(N3CCOCC3)cc3nccnc23)CC1 [Compound 277] | < 0.1 |
| c1ccc(N[C@H]2CC[C@@H](Nc3cc(N4CCOCC4)cc4nccnc34)CC2)nc1 [Compound 24] | < 0.1 |

| SMILES | Ki [µM] |
| --- | --- |
| COC(=O)c1ccc(N[C@H]2CC[C@@H](Oc3cc(N4CCOCC4)cc4nccnc34)CC2)nc1 [Compound 146] | < 0.1 |
| COC(=O)c1cc(N[C@H]2CC[C@@H](Oc3cc(N4CCOCC4)cc4nccnc34)CC2)ncc1OC(C)(C)C [Compound 407] | < 0.1 |
| CN(C)C(=O)c1cnc(N[C@H]2CC[C@@H](Oc3cc(N4CCOCC4)cc4nccnc34)CC2)cn1 [Compound 108] | < 0.1 |
| OCc1ccc(N[C@H]2CC[C@@H](Oc3cc(N4CCOCC4)cc4nccnc34)CC2)nc1 [Compound 160] | < 0.1 |
| CCOCCOc1cnc(N[C@H]2CC[C@@H](Oc3cc(N4CCOCC4)cc4nccnc34)CC2)nc1 [Compound 66] | < 0.1 |
| CN1CCN(c2ncc(C(=O)N[C@H]3CC[C@@H](Oc4cc(N5CCOCC5)cc5nccnc45)CC3)cn2)CC1 [Compound 199] | < 0.1 |
| CNC(=O)c1ccc(N[C@H]2CC[C@@H](Oc3cc(N4CCOCC4)cc4nccnc34)CC2)nc1 [Compound 144] | < 0.1 |
| N#Cc1cccnc1N[C@H]1CC[C@@H](Oc2cc(N3CCOCC3)cc3nccnc23)CC1 [Compound 87] | < 0.1 |
| COc1cnc(N[C@H]2CC[C@@H](Oc3cc(N4CCOCC4)cc4nccnc34)CC2)nc1 [Compound 134, 5-methoxy-N-((cis)-4-((7-morpholinoquinoxalin-5-yl)oxy)cyclohexyl)pyrimidin-2-amine] | < 0.1 |
| CC(C)(O)c1cnc(N[C@H]2CC[C@@H](Oc3cc(N4CCOCC4)cc4nccnc34)CC2)nc1 [Compound 243] | < 0.1 |
| CC(C)(CO)Nc1ccnc(N[C@H]2CC[C@@H](Oc3cc(N4CCOCC4)cc4nccnc34)CC2)n1 [Compound 264] | < 0.1 |
| c1cnc(N[C@H]2CC[C@@H](Nc3cc(N4CCOCC4)cc4nccnc34)CC2)cn1 [Compound 27] | < 0.1 |
| Fc1ccnc(N[C@H]2CC[C@@H](Oc3cc(N4CCOCC4)cc4nccnc34)CC2)n1 [Compound 49] | < 0.1 |
| CCOc1cc(N[C@H]2CC[C@@H](Oc3cc(N4CCOCC4)cc4nccnc34)CC2)nc(C)n1 [Compound 644] | < 0.1 |
| Cc1nc(N[C@H]2CC[C@@H](Oc3cc(N4CCOCC4)cc4nccnc34)CC2)cc(N2CCN(C)CC2)n1 [Compound 275] | < 0.1 |
| COCc1cnc(N[C@H]2CC[C@@H](Oc3cc(N4CCOCC4)cc4nccnc34)CC2)nc1 [Compound 161] | < 0.1 |
| c1cnc2c(O[C@H]3CC[C@@H](Nc4ncc(C5CC5)cn4)CC3)cc(N3CCOCC3)cc2n1 [Compound 109] | < 0.1 |
| CN1CCN(c2ccc(C(=O)N[C@H]3CC[C@@H](Oc4cc(N5CCOCC5)cc5nccnc45)CC3)nc2)CC1 [Compound 198] | < 0.1 |
| N#Cc1cc(N[C@H]2CC[C@@H](Oc3cc(N4CCOCC4)cc4nccnc34)CC2)ncn1 [Compound 234] | < 0.1 |

| SMILES | Ki [µM] |
| --- | --- |
| COCc1cc(N[C@H]2CC[C@@H](Oc3cc(N4CCOCC4)cc4nccnc34)CC2)ncn1 [Compound 225] | < 0.1 |
| OC1CCN(c2ccnc(N[C@H]3CC[C@@H](Oc4cc(N5CCOCC5)cc5nccnc45)CC3)n2)C1 (stereo partly drawn) [Compound 187] | < 0.1 |
| Nc1cnc(N[C@H]2CC[C@@H](Oc3cc(N4CCOCC4)cc4nccnc34)CC2)nc1 [Compound 143] | < 0.1 |
| Cc1cnc(N[C@H]2CC[C@@H](Oc3cc(N4CCOCC4)cc4nccnc34)CC2)nc1 [Compound 142] | < 0.1 |
| C1=C(c2cc(O[C@H]3CC[C@@H](Nc4ncccn4)CC3)c3nccnc3c2)CCOC1 [Compound 36, N-[(cis)-4-[7-(3,6-dihydro-2H-pyran-4-yl)quinoxalin-5-yl]oxycyclohexyl]pyrimidin-2-amine] | < 0.1 |
| c1cnc(N[C@H]2CC[C@@H](Oc3cc(N4C[C@H]5CC[C@@H](C4)O5)cc4nccnc34)CC2)nc1 [Compound 53] | < 0.1 |
| CNC(=O)c1cnc(N[C@H]2CC[C@@H](Oc3cc(N4CCOCC4)cc4nccnc34)CC2)nc1 [Compound 71] | < 0.1 |
| Cc1cnc(N[C@H]2CC[C@@H](Oc3cc(N4CCOCC4)cc4nccnc34)CC2)nc1N1CCCCC1 [Compound 567] | < 0.1 |
| Cc1ccc(N[C@H]2CC[C@@H](Oc3cc(N4CCOCC4)cc4nccnc34)CC2)nc1 [Compound 256] | < 0.1 |
| Cc1ccc(N[C@H]2CC[C@@H](Oc3cc(N4CCOCC4)cc4nccnc34)CC2)nn1 [Compound 450] | < 0.1 |
| c1cc(N[C@H]2CC[C@@H](Oc3cc(N4CCOCC4)cc4nccnc34)CC2)nc(C2CC2)n1 [Compound 267] | < 0.1 |
| Cc1nc(N[C@H]2CC[C@@H](Oc3cc(N4CCOCC4)cc4nccnc34)CC2)ccc1C#N [Compound 241] | < 0.1 |
| N#Cc1nccc(N[C@H]2CC[C@@H](Oc3cc(N4CCOCC4)cc4nccnc34)CC2)n1 [Compound 203] | < 0.1 |
| O=C(O)c1ccc(N[C@H]2CC[C@@H](Oc3cc(N4CCOCC4)cc4nccnc34)CC2)nc1 [Compound 139] | < 0.1 |
| OCc1cnc(N[C@H]2CC[C@@H](Oc3cc(N4CCOCC4)cc4nccnc34)CC2)nc1 [Compound 94] | < 0.1 |
| O=C(O)c1ccnc(N[C@H]2CC[C@@H](Oc3cc(N4CCOCC4)cc4nccnc34)CC2)n1 [Compound 93] | < 0.1 |
| Cc1cc(C)nc(N[C@H]2CC[C@@H](Oc3cc(N4CCOCC4)cc4nccnc34)CC2)n1 [Compound 52] | < 0.1 |
| Clc1cc(N[C@H]2CC[C@@H](Oc3cc(N4CCOCC4)cc4nccnc34)CC2)ncn1 [Compound 39] | < 0.1 |
| N#Cc1ccc(N[C@H]2CC[C@@H](Oc3cc(N4CCOCC4)cc4nccnc34)CC2)nn1 [Compound 55] | < 0.1 |
